The values that follow come from patent EP4813463A2, “TYK2 INHIBITORS AND COMPOSITIONS AND METHODS THEREOF” (Lynk Pharmaceuticals Co. Ltd., priority 2023, dated 2024).

Converted amounts (≈) assume the structure as drawn. Where two headings read alike, the source gives them in different places.

In one data set the test system is pSTAT1. As to the kind of experiment: Phosphorylation inhibition of STAT in human whole blood (IFN-alpha stimulated, flow cytometry). It is filed as cell-based. As to conditions: T-cell, 20 min, IFN-alpha stimulation 20 mins, CD3 T cells, read-out: pSTAT1 inhibition in hWB (IC50). How it is done:
The inhibitory potential of test articles in human whole blood assay was evaluated by the method of flow cytometry.
IFN-alpha will activate JAK1 and TYK2 kinase in T cells by binding to IFN receptors, and then lead to phosphorylation of STAT1 and STAT2. The phosphorylated STAT1 enter nuclear and promote transcription and expression of IFN-gamma. To evaluate the efficacy of TYK2i in T cells, freshly collected human whole blood will be stimulated with certain unit of human IFN-alpha (Universal Type I IFN(1MU), R&D, 11200-2) for 20 mins in incubator. After stimulation, fix cells with Phosflow™ Fix Buffer I (BD, 557870), and then collect fixed cells by centrifugation (500 g, 8min). Wash cells once with pre-cooled PBS, and then permeabilize cells with cold Perm Buffer III buffer (BD, 558050) for 45 mins on ice. Collect cells by centrifugation (600 g, 8min) and washed twice with cold PBS. Stain cells with anti-human CD3(FITC Mouse Anti-Human CD3, BD, 555332) and anti-pSTAT1_Y701(Alexa Fluor 647 Mouse Anti-Stat1 (pY701), BD, 612597) antibodies. Detect pSTAT1 by flow cytometry (CytoFlex S) and analyze data with FlowJo and GraphPad Prism 8 software. IC50 values of test articles were determined using 4- parameter logistic equation.

Another data set addresses T1, JAK1-JH2 domain (Homo sapiens, UniProt P23458).
T1 construct: JAK1-JH2 domain or TYK2-JH2 domain enzyme in assay buffer
As to the kind of experiment: Binding activity test for JH2 domain of JAK1 (Tb-antibody/tracer FRET). As to conditions: JH2 domain enzyme; 60 min at 25°C, then 4°C overnight; read-out: JAK1 JH2 Binding IC50. In a few lines: (§1)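 IC50 values (nM) come from TR-FRET readings taken after a 25°C incubation followed by overnight at 4°C. Each well held JH2 domain protein, Tb-antibody, tracer and test compound titrated in 11 threefold steps, with DMSO high and low controls.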

The next data set in a line: Kinetic solubility. It is filed as physicochemical. As to conditions: phosphate buffer, pH 7.4, aqueous buffer, kinetic from dmso stock, 100 mM pH 7.4 phosphate buffer, 1% DMSO, room temperature, read-out: Kinetics Solubility_PBS7.4. As for the experimental part: Aliquots of 8 µL of reference and test compound stock solutions (10 mM/5 mM) are added into 792 µL of 100 mM pH 7.4 phosphate buffer. The final DMSO concentration is 1%. Sample tubes are shaken for 2 hours at 1000 rpm at room temperature. Samples are centrifuged at 12000 rpm for 10 min to precipitate un-dissolved particles. And transfer the supernatants to a new tube or plate. Add 5 µL of samples (no diluted, 10 times diluted, and 100 times diluted) and standard curve samples to 95 µL of ACN containing IS for LC-MS/MS analysis. Kinetic Solubilities Values of Exemplary Compounds

Data set [1] concerns Ba/F3-FL-TYK2-P760L cells. As to the kind of experiment: Anti-proliferative assay in engineered Ba/F3 cells (Cell-Titer Glo, 72 h). It counts as cell-based. As to conditions: 72 h compound treatment, concentration that causes 50% growth inhibition, read-out: Baf3-FL-T2P760L. In a few lines: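 IC50 from luminescent ATP viability after 72 h compound exposure (37 °C, 5% CO2), % inhibition normalised to DMSO-treated cells minus medium blank. IL-3-free Ba/F3-FL-TYK2-P760L (Tel-JAK fusion) cells in 10% FBS RPMI-1640 received 9 three-fold doses, top 20 µM, 0.1% DMSO.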

Another data set addresses T2, TYK2-JH2 domain (Homo sapiens, UniProt P29597).
T2 construct: JAK1-JH2 domain or TYK2-JH2 domain enzyme in assay buffer
As to the kind of experiment: Binding activity test for JH2 domain of TYK2 (Tb-antibody/tracer FRET). As to conditions: for IC50: JH2 domain enzyme, 60 min at 25°C, then 4°C overnight, read-out: TYK2 JH2 Binding IC50; for JAK1/TYK2 selectivity: ratio of JAK1 JH2 to TYK2 JH2 binding IC50. An outline of the steps: as §1

Data set [2] can be described thus: Microsomal metabolic stability assay. It is filed as in vitro ADME. Conditions: human, liver microsomes, pH 7.4, 0.5 mg/mL microsomal protein, 1 µM test article, 2 mM NADPH; for microsomal CLint at 1 µM: read-out: Human LM Clint; for half-life at 1 µM: read-out: Human LM T1/2. As for the experimental part: Microsomes were pre-incubated with test compound or control compounds for 5 min at 37°C in 100 mM potassium phosphate buffer, pH 7.4, 1.0 mM EDTA. The reaction was initiated by addition of 15 µL of the NADPH regenerating system to 30 µL of each incubation mixture per time point. The final incubation condition was composed of 0.5 mg/mL microsomal protein, 1 µM test article/positive control, 2 mM NADPH. The 0-minute samples were prepared by addition of a 30 µL aliquot of each incubation mixture to 135 µL quench reagent to precipitate proteins. And then a 15 µL aliquot of the NADPH regenerating system was added. At 5, 15, 30 and 45 minutes, the reaction will be stopped by the addition of cold acetonitrile solution containing internal standard. The samples taken at all time points were centrifuged at 5000×g for 15 minutes. 50 µL of supernatant are taken into 96-well assay plates pre-added with 50 µL ultrapure water, and then analyzed by LC/MS/MS.
Concentrations of test articles, control compounds in the samples were determined by using LC/MS/MS method. Plotting of the chromatograms and peak area integrations are carried out by Analyst (AB Sciex).
In the determination of the in vitro elimination constant (ke) of the control compounds, the analyte/internal standard peak area ratios will be converted to percentage remaining (%Remaining) with the following equation: %Remaining = (Peak area ratio of analyte to IS at each time point)/(Peak area ratio of analyte to IS at t = 0) × 100% [formula]
The CLint of microsomes was calculated using the formula: CLint (mic)=0.693/T1/2 /mg microsome protein per mL. The slope was measured by the natural logarithm of the percentage of the residual compound and time, T1/2 was calculated according to the following formula. T = (0.693)/(−slope) [formula]

T1 sequence (P23458 583-855 limits assumed): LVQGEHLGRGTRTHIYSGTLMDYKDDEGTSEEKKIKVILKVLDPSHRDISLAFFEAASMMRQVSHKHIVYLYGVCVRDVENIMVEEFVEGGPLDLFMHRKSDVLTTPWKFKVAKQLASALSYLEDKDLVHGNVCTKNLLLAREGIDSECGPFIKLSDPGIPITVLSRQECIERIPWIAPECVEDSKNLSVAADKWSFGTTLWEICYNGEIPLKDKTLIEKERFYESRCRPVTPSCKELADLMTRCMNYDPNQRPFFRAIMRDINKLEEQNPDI
T2 sequence (P29597 589-875 limits assumed): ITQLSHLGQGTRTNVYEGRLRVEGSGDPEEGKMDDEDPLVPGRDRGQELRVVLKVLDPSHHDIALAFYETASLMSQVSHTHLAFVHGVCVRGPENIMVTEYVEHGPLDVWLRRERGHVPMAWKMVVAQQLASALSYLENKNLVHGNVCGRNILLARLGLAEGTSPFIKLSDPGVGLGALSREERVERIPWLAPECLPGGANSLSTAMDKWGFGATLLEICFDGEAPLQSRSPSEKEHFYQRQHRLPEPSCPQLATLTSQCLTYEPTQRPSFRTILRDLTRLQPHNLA

As for `[2H]C([2H])([2H])NC(=O)c1cnc(NC(=O)C2CC2)cc1Nc1cnn2ccc(C(C)C(F)(F)F)c(OC)c12` (single isomer, unassigned) [Example 9B, (S*)-6-(cyclopropanecarboxamido)-4-((4-methoxy-5-(1,1,1-trifluoropropan-2-yl)pyrazolo[1,5-a]pyridin-3-yl)amino)-N-(methyl-d3)nicotinamide], the IC50 turned out to be 290 nM in the data set on pSTAT1, 5.04 nM on JAK1-JH2 domain, 54.2 nM in data set [1] and 0.08 nM on TYK2-JH2 domain. In addition, the solubility kinetic at 2 h in the data set “Kinetic solubility” was 45.4 µM (≈ 21.7 µg/mL). In addition, the JAK1/TYK2 selectivity on TYK2-JH2 domain was 63.0.

`[2H]C([2H])([2H])NC(=O)c1cnc(NC(=O)C2CC2)cc1Nc1cnn2ccc(C(C)C(F)(F)F)c(OC)c12` (stereo not drawn) [Example 9, 6-(Cyclopropanecarboxamido)-4-((4-methoxy-5-(1,1,1-trifluoropropan-2-yl)pyrazolo[1,5-a]pyridin-3-yl)amino)-N-(methyl-d3)nicotinamide]: the IC50 amounted to 8.76 nM at JAK1-JH2 domain, 51.6 nM in data set [1] and 0.158 nM on TYK2-JH2 domain. For the same compound, the solubility kinetic at 2 h in the data set “Kinetic solubility” is 60 µM (≈ 28.8 µg/mL). Further, at TYK2-JH2 domain, the JAK1/TYK2 selectivity came out at 55.4.

For `[2H]C([2H])([2H])NC(=O)c1cnc(NC(=O)C2CC2)cc1Nc1cnn2ccc(C#N)c(OC)c12` [Example 12, 4-((5-Cyano-4-methoxypyrazolo[1,5-a]pyridin-3-yl)amino)-6-(cyclopropanecarboxamido)-N-(methyl-d3)nicotinamide], the IC50 at JAK1-JH2 domain was 21.1 nM; in data set [1] (Mus musculus, BaF3, 72 h), 194 nM; on TYK2-JH2 domain it was 0.308 nM. In addition, the solubility kinetic at 2 h in “Kinetic solubility” is 15.1 µM (≈ 6.18 µg/mL). The JAK1/TYK2 selectivity at TYK2-JH2 domain is reported as 68.5.

With `[2H]C([2H])([2H])NC(=O)c1cnc(NC(=O)[C@@H]2C[C@@H]2F)cc1Nc1cnn2ccc(C#N)c(OC)c12` [Example 13, 4-((5-Cyano-4-methoxypyrazolo[1,5-a]pyridin-3-yl)amino)-6-((1S,2S)-2-fluorocyclopropane-1-carboxamido)-N-(methyl-d3)nicotinamide], the IC50 at JAK1-JH2 domain is 21 nM. Further, in data set [2], the microsomal CLint at 1 µM is 22 µL/min/mg and the half-life at 1 µM was 1.05 h. Moreover, the solubility kinetic at 2 h in “Kinetic solubility” came to 11.2 µM (≈ 4.77 µg/mL). Besides, the IC50 in data set [1] (Mus musculus, BaF3, 72 h) was found to be 131 nM. At TYK2-JH2 domain, the IC50 was found to be 0.172 nM and the JAK1/TYK2 selectivity worked out at 122.0.

For the compound `[2H]C([2H])([2H])NC(=O)c1cnc(NC(=O)C2(F)CC2)cc1Nc1cnn2ccc([C@H](O)C(F)(F)F)c(OC)c12` [Example 19, (S)-6-(1-fluorocyclopropane-1-carboxamido)-4-((4-methoxy-5-(2,2,2-trifluoro-1-hydroxyethyl)pyrazolo[1,5-a]pyridin-3-yl)amino)-N-(methyl-d3)nicotinamide], the IC50 at JAK1-JH2 domain turned out to be 276 nM; in data set [1] (Mus musculus, BaF3, 72 h) it was 137 nM; on TYK2-JH2 domain, 0.273 nM. Also, the solubility kinetic at 2 h in “Kinetic solubility” amounted to 22.7 µM (≈ 11.3 µg/mL). In addition, the JAK1/TYK2 selectivity at TYK2-JH2 domain came to 1011.9.

Regarding `[2H]C([2H])([2H])NC(=O)c1cnc(NC(=O)C2CC2)cc1Nc1cnn2ccc(CC(C)(F)F)c(OC)c12` [Example 20, 6-(Cyclopropanecarboxamido)-4-((5-(2,2-difluoropropyl)-4-methoxypyrazolo[1,5-a]pyridin-3-yl)amino)-N-(methyl-d3)nicotinamide], the IC50 stood at 13.6 nM at JAK1-JH2 domain; 23.1 nM in data set [1] (Mus musculus, BaF3, 72 h); 0.058 nM on TYK2-JH2 domain. Also, in “Kinetic solubility”, the solubility kinetic at 2 h turned out to be 15 µM (≈ 6.92 µg/mL). For the same compound, the JAK1/TYK2 selectivity at TYK2-JH2 domain turned out to be 235.2.

As for `[2H]C([2H])([2H])NC(=O)c1cnc(NC(=O)C2CC2)cc1Nc1cnn2ccc(COC([2H])([2H])[2H])c(OC)c12` [Example 29, 6-(Cyclopropanecarboxamido)-4-((4-methoxy-5-((methoxy-d3)methyl)pyrazolo[1,5-a]pyridin-3-yl)amino)-N-(methyl-d3)nicotinamide], at JAK1-JH2 domain, the IC50 stood at 16.7 nM. Further, in data set [2], the microsomal CLint at 1 µM was found to be 27.9 µL/min/mg and the half-life at 1 µM was 0.827 h. Further, the solubility kinetic at 2 h in “Kinetic solubility” was 67.2 µM (≈ 28.9 µg/mL). In addition, in data set [1] (Mus musculus, BaF3, 72 h), the IC50 is 80.9 nM. Further, at TYK2-JH2 domain, the IC50 was 0.219 nM and the JAK1/TYK2 selectivity was found to be 76.4.

On to `[2H]C([2H])([2H])NC(=O)c1cnc(NC(=O)C2CC23CC3)cc1Nc1cnn2ccc([C@H](O)C(F)(F)F)c(OC)c12` (stereo partly drawn) [Example 32, 4-((4-Methoxy-5-((S)-2,2,2-trifluoro-1-hydroxyethyl)pyrazolo[1,5-a]pyridin-3-yl)amino)-N-(methyl-d3)-6-(spiro[2.2]pentane-1-carboxamido)nicotinamide], for which the IC50 at JAK1-JH2 domain is 23.5 nM; in data set [1] (Mus musculus, BaF3, 72 h) it was 42.3 nM; on TYK2-JH2 domain it was 0.171 nM. In addition, the solubility kinetic at 2 h in “Kinetic solubility” came out at 62.2 µM (≈ 31.6 µg/mL). The JAK1/TYK2 selectivity on TYK2-JH2 domain turned out to be 137.2.

Turning to `[2H]C([2H])([2H])NC(=O)c1cnc(NC(=O)[C@@H]2C[C@@H]2F)cc1Nc1cnn2cnc(C(C)C(F)(F)F)c(OC)c12` (stereo partly drawn) [Example 38, 6-((1S,2S)-2-fluorocyclopropane-1-carboxamido)-4-((4-methoxy-5-(1,1,1-trifluoropropan-2-yl)pyrazolo[1,5-c]pyrimidin-3-yl)amino)-N-(methyl-d3)nicotinamide], the IC50 on JAK1-JH2 domain was determined as 144 nM. Further, in data set [2], the microsomal CLint at 1 µM worked out at 7.34 µL/min/mg and the half-life at 1 µM amounted to 3.15 h. For the same compound, the solubility kinetic at 2 h in “Kinetic solubility” was 37.2 µM (≈ 18.5 µg/mL). In data set [1] (Mus musculus, BaF3, 72 h), the IC50 worked out at 1340 nM. For the same compound, at TYK2-JH2 domain, the IC50 came to 0.761 nM and the JAK1/TYK2 selectivity came out at 188.7.

For the compound `[2H]C([2H])([2H])NC(=O)c1cnc(NC(=O)C2CC2)cc1Nc1nn(C)c2ccc([C@@H](O)C(F)(F)F)c(OC)c12` [Example 49B, (R)-6-(cyclopropanecarboxamido)-4-((4-methoxy-1-methyl-5-(2,2,2-trifluoro-1-hydroxyethyl)-1H-indazol-3-yl)amino)-N-(methyl-d3)nicotinamide], the IC50 on JAK1-JH2 domain is 6.07 nM; in data set [1] (Mus musculus, BaF3, 72 h), 18 nM; on TYK2-JH2 domain it was 0.211 nM. Also, the solubility kinetic at 2 h in “Kinetic solubility” amounted to 37.5 µM (≈ 18.6 µg/mL). Besides, the JAK1/TYK2 selectivity on TYK2-JH2 domain is 28.76.
